Source: publication PMC10197068 (Bioconjugate Chemistry, 2023)
pIC50: −log10 of the molar value.

Tests used:
[1] = test system: G1 (DNA, G4) AGGGTTAGGGTTAGGGTTAGGG; assay: CD melting at 295 nm; settings: 100 mM NaCl, 10 mM Li cacodylate, pH 7.3, 6 μM DNA
[2] = test system: G2T6 (DNA, G4) AGGGTTAGGGTTAGGGTTAGGGTTATTATTATTATTATTAGGGTTAGGGTTAGGGTTAGGG; assay: CD melting at 295 nm; settings: 100 mM NaCl; 10 mM Li cacodylate, pH 7.3; 6 μM compound (12 μM salphen units), 3 μM DNA
[3] = test system: G1 (K+) monomeric HTelo G4 DNA; assay: Emission titration with G1 (K+); format: binding, human; settings: Table S2, unit not given, ligand 2 μM, 100 mM KCl, 10 mM Li cacodylate, pH 7.3, exc 440 nm, em 590 nm, triplicate
Procedure: (§1) Next, emission titrations were carried out with the emissive Pt^II compounds M2 and D3–8 and G4/duplex DNA to obtain association constants. Both Na^+ and K^+ stabilized monomeric and dimeric G4 DNA were investigated. Additionally, titrations were carried out with CT-DNA to evaluate the selectivity for G4 versus duplex DNA. Figure 5 summarizes the obtained results (see Figures S24–S37 and Table S2 for a full set of titration data). First discussed are the experiments conducted in Na^+ buffer, in which the G4 topology formed is antiparallel.[41] […] As discussed previously, this could potentially be caused by a “sandwiched” binding mode in which the metal-salphen complex sits between two G-quadruplex units. For dimeric metal-salphen complexes D3–8, however, there are several differences when compared to the CD melting studies. […] Upon increasing the linker length to a two-amino-acid sequence (RR and KK for compounds D4 and D5, respectively), larger Ka values were obtained with minimal change to the pattern of selectivity. […] Increasing the linker length to an eight-amino-acid sequence (RRRRRRRR) led to a similar stabilization of G2T6, while G1 stabilization increased.
(§2) G-Quadruplex oligonucleotides were purchased from Eurogentec (Belgium), and CT-DNA was purchased from Sigma-Aldrich. Stock solutions were prepared via dilution in the appropriate buffers to concentrations of 300–400 μM determined by UV–vis measurements in which increasing amounts of DNA were added to a cuvette and the absorbance at 260 nm recorded using an Agilent Cary UV 60 spectrometer. Prior to use, the DNA stock solutions were annealed by heating at 95 °C for 5 min and then cooling to room temperature overnight.
(§3) Experiments were carried out using a BMG Clariostar Microplate reader with Greiner Bio-One half-volume (100 μL/well) plates. Excitation was carried out at 440 nm and recorded from 500 to 700 nm in addition to a matrix scan at 590 nm. Titrations were carried out using G1, G2T1, and G2T6 (Na^+) G4 DNA (100 mM NaCl, 10 mM Li cacodylate, pH 7.3); G1, G2T1, and G2T6 (K^+) G4 DNA (100 mM KCl, 10 mM Li cacodylate, pH 7.3); and CT-DNA (100 mM KCl, 10 mM Li cacodylate, pH 7.3). Ligand concentration was kept constant at 2 μM, and the following DNA equivalents were tested: 0, 0.1, 0.2, 0.3, 0.4, 0.5, 0.75, 1, 1.5, 2, 3, and 5 (for CT-DNA 10× base pair equivalents were used, i.e., 1 to 50 BPE). Sample preparation was carried out by preparing stock solutions of double concentration ligand (4 μM) and DNA in the appropriate buffer, before 50 μL of each was added to the appropriate well and mixed. Experiments were conducted in triplicate and binding constants were obtained by curve fitting in Graphpad Prism 8 using eq 1.[46] [drawing 1] 1
(§4) Fluorescence response (y) was fitted against DNA concentration (x); R is the machine response, K is the association constant of ligand and DNA, L is the concentration of ligand, and n is the number of binding sites per DNA. The values of L and n were varied so that that the L was equal to the number of salphen units and n was equal to the number of G4 faces per DNA. The matrix scan results were used to plot the titration curves and 500–700 nm scan results were used to confirm that expected curve shapes and shifts were observed.

[4] = test system: G2T1 (K+) dimeric HTelo G4 DNA; assay: Emission titration with G2T1 (K+); format: binding, human; settings: Table S2, unit not given, ligand 2 μM, 100 mM KCl, 10 mM Li cacodylate, pH 7.3, exc 440 nm, em 590 nm, triplicate
Procedure: as §1, §2, §3, §4

[5] = test system: G2T6 (K+) dimeric HTelo G4 DNA; assay: Emission titration with G2T6 (K+); format: binding, human; settings: Table S2, unit not given, ligand 2 μM, 100 mM KCl, 10 mM Li cacodylate, pH 7.3, exc 440 nm, em 590 nm, triplicate
Procedure: as §1, §2, §3, §4

[6] = test system: G1 (Na+) monomeric HTelo G4 DNA; assay: Emission titration with G1 (Na+); format: binding, human; settings: Table S2, unit not given, ligand 2 μM, 100 mM NaCl, 10 mM Li cacodylate, pH 7.3, exc 440 nm, em 590 nm, triplicate
Procedure: as §1, §2, §3, §4

[7] = test system: G2T1 (Na+) dimeric HTelo G4 DNA; assay: Emission titration with G2T1 (Na+); format: binding, human; settings: Table S2, unit not given, ligand 2 μM, 100 mM NaCl, 10 mM Li cacodylate, pH 7.3, exc 440 nm, em 590 nm, triplicate
Procedure: as §1, §2, §3, §4

[8] = test system: G2T6 (Na+) dimeric HTelo G4 DNA; assay: Emission titration with G2T6 (Na+); format: binding, human; settings: Table S2, unit not given, ligand 2 μM, 100 mM NaCl, 10 mM Li cacodylate, pH 7.3, exc 440 nm, em 590 nm, triplicate
Procedure: as §1, §2, §3, §4

[9] = Precipitation on addition to DNA solution (CD melting conditions); format: physicochemical; settings: CD melting concentrations: dimeric salphen 6 μM, G1 6 μM or G2Tx 3 μM; 100 mM NaCl, 10 mM Li cacodylate, pH 7.3
Procedure: First, circular dichroism (CD) melting experiments were carried out with compounds D1–8 and their monomeric analogues M1–2 via the combination of DNA and compound in which the ratio of salphen units to G4 external tetrads was kept at a constant ratio of 2:1, i.e., [monomeric salphen] = 12 μM, [dimeric salphen] = 6 μM, [G1] = 6 μM, and [G2Tx] = 3 μM. The CD melting experiments were conducted solely with Na^+ stabilized DNA, which forms an antiparallel topology in solution (cf., in the presence of K^+ a mixture of topologies is observed). During the assay the temperature was increased from 25 to 95 °C upon which the intensity of signals with negative ellipticity at ca. 265 nm and positive ellipticity at ca. 295 (characteristic of an antiparallel G4 structure) decreased—see Figure 4a. This indicates the expected unfolding of the G4 DNA structure as the temperature increases. […] From these curves, the ΔTm values for the different sequences and compounds were determined, and the results are summarized in Figure 4c (see Supplementary Table 1 for values).
Experiments were carried out on a Jasco J-810 spectrophotometer using a 1 cm quartz cuvette. […] The signal at 295 nm was monitored as temperature was increased for 25 to 95 °C at a rate of 2 °C/min. […]

[10] = test system: human osteosarcoma U2OS cells
Procedure: Cytotoxicity studies of compounds were carried out on a U-2 OS cell line (human osteosarcoma cells). These cells were grown on culture medium McCoy’s 5A Medium supplemented with 10% FBS (Fetal Bovine Serum) in an atmosphere of 95% air and 5% CO2 at 37 °C. Inhibition of cell growth induced by the tested compound was evaluated using a MTT assay. The cells were seeded in a sterile 96-well plate at a density of 15,000 cells per well and incubated for 24 h in growth medium. Afterward, the compound dissolved in H2O or DMSO was added to the cells maintaining the same proportion of solvent in each well. After 48 h of incubation in an atmosphere of 95% air and 5% CO2 at 37 °C, 10 μL of 5 mg/mL MTT prepared in PBS (0.136 M NaCl, 1.47 mM KH2PO4, 8 mM NaH2PO4, and 2.68 mM KCl) was added to each well, and the cell plate was incubated for another 4 h. […] Finally, absorbance of the cell plate was measured at a wavelength of 595 nm (Tecan M1000 infinite Pro). […] The absorbance measurement range was assessed between one value (average of triplicate points) containing 15,000 cells in McCoy’s 5A medium and in the absence of growth factors (which allows to determine the stable cell concentration) and another value (average of triplicate points) containing the usual growth medium (which allows to measure the maximum cell growth at 48 h). […]

Molecule: C[N+](C)(C)CCOc1ccc(C=Nc2ccc(C(=O)NCc3cn(CC(=O)N[C@@H](CCCCN)C(=O)N[C@@H](CCCCN)C(=O)N[C@@H](Cn4cc(CNC(=O)c5ccc(N=Cc6ccc(OCC[N+](C)(C)C)cc6[O-])c(N=Cc6ccc(OCC[N+](C)(C)C)cc6[O-])c5)nn4)C(N)=O)nn3)cc2N=Cc2ccc(OCC[N+](C)(C)C)cc2[O-])c([O-])c1.[Pt+2].[Pt+2]
- ΔTm ([1]; 6 μM compound (12 μM salphen units)): 5.5 °C

Molecule: C[N+](C)(C)CCOc1ccc(C=Nc2ccc(C(=O)NCc3cn(CCOCCn4cc(CNC(=O)c5ccc(N=Cc6ccc(OCC[N+](C)(C)C)cc6[O-])c(N=Cc6ccc(OCC[N+](C)(C)C)cc6[O-])c5)nn4)nn3)cc2N=Cc2ccc(OCC[N+](C)(C)C)cc2[O-])c([O-])c1.[Pt+2].[Pt+2]
- ΔTm ([1]; 6 μM compound, b22 states 1.1–1.5 °C for D1–4): 3.0 °C
- ΔTm [2]: 6.4 °C

Molecule: RRRRRRRR [Compound D8]
- Association constant G1 (K+), mean [3]: 0.84
- Association constant G2T1 (K+), mean [4]: 0.22
- Association constant G2T6 (K+), mean [5]: 0.38
- Association constant G1 (Na+), mean [6]: 0.47
- Association constant G2T1 (Na+), mean [7]: 0.31
- Association constant G2T6 (Na+), mean [8]: 0.75
- precipitation on addition to the DNA solution [9]: caused precipitation
- pIC50 [10]: 4.37
